Data published in patent publication US12239662B2, “Compositions for inhibiting anaerobic microorganisms” (LPOXY THERAPEUTICS, INC, priority 2020, dated 2025).
Read-outs that look alike come from different tables or passages of the source.

Key:
[1] = up to the maximum bolus tested, 200 microliters every 6 hours (8 mL/kg per bolus; 32 mL/kg/day)
Method: In a separate experiment using the above conditions the tolerance of bolus injection of 100% oxygen gas was tested.

[2] = tested on: Clostridioides difficile ATCC 43255; details: for onset of action: compared between treatment groups; for cure rate: no recurrence over 14 days after inoculation; for clinical severity and recovery: total clinical score and daily weights, compared to infection control group; for survival: treatment study day 0 to day 4, followed 14 days after inoculation, 10 mice per group
From the text: Thirty C57BL/6 female mice (18-22 g) fitted with duodenal catheters externalized and fitted with access button ports were purchased from Charles River Laboratories and singly housed in a temperature and humidity-controlled room with a 12-hour light cycle. The mice were divided into 3 groups of 10. All procedures used in these experimental protocols were in compliance with the Animal Welfare Act, the Guide for the Care and Use of Laboratory Animals, and the Office of Laboratory Animal Welfare.
The mice were pretreated with an antibiotic cocktail in their drinking water for 8 consecutive days. This antibiotic cocktail was composed of 1% glucose, 500 mcg/mL kanamycin, 44 mcg/mL gentamicin, 1062.5 units per milliliter colistin, 269 mcg/mL metronidazole, 156 mcg/mL ciprofloxacin, 100 mcg/mL ampicillin, and 56 mcg/mL vancomycin. The antibiotic cocktail and drinking water was replaced every 2 to 3 days. Five days prior to infection the antibiotic water was removed and normal drinking water was provided to the animals. Three days prior to infection the animals received a single dose of clindamycin 10 mg per kilogram via oral administration in a volume of 10 mL per kilogram.
On study Day 0 mice were inoculated with the bacterial suspension of 5×10^5 CFU Clostridioides difficile ATCC 43255 via oral gavage. Eight hours after inoculation administration of vehicle, antibiotic control, and test article was initiated according to the following. The vehicle a.k.a. infection control group of 10 mice received 80 μL per hour 100% pure nitrogen gas via duodenal catheter. The infection control group of 10 mice received 50 mg/kg vancomycin via oral gavage once daily. […] Administration was continued from study day 0 to study day 4, a total of 5 days. The mice were followed for 14 days after inoculum recording daily weights and clinical observations. Animals that appeared severely moribund were euthanized. At the end of the study all animals were humanely euthanized.

Row | SMILES | adverse effects of bolus injection [1] | adverse effects due to gas infusion ([2]; efficacy experiments, infusion 3.2 mL/kg/hr, 76.8 mL/kg/day via duodenal catheter) | onset of action ([2]; mouse CDI model) | animals showing signs of infection in the 2nd week after inoculation and treatment (recurrence) ([2]; mouse CDI model, days 8-14, after treatment was complete) | cure rate ([2]; mouse CDI model) | clinical severity and recovery ([2]; mouse CDI model) | clinical severity and recovery ([2]; mouse CDI model, listed as Enteric aerobization therapy) | survival ([2]; mouse CDI model)
1 | O=O [EAT, oxygen] | No adverse effects | no adverse effects | slower onset of action | no recurrent infections | 100% | mildly ill compared to the infection control group, recover rapidly | reduces the severity of disease, accelerates recovery | 100%
2 | CN[C@H](CC(C)C)C(=O)N[C@H]1C(=O)N[C@@H](CC(N)=O)C(=O)N[C@H]2C(=O)N[C@H]3C(=O)N[C@H](C(=O)N[C@H](C(=O)O)c4cc(O)cc(O)c4-c4cc3ccc4O)[C@H](O)c3ccc(c(Cl)c3)Oc3cc2cc(c3O[C@@H]2O[C@H](CO)[C@@H](O)[C@H](O)[C@H]2O[C@H]2C[C@](C)(N)[C@H](O)[C@H](C)O2)Oc2ccc(cc2Cl)[C@H]1O [vancomycin, reference compound] |  |  | more rapid onset of action |  | 30% |  |  | 100%
